# Reference: paper PMC3498823 (Bioorganic & medicinal chemistry letters, 2011)
# Entries after “also recorded” stand apart in the source; their conditions may differ.
# Columns and labels:
# [1] = tested on: amphetamine induced hyperlocomotion in rats; experiment: reversal of amphetamine-induced hyperlocomotion; assay type: in vivo; details: 30 mg/kg i.p.
# mGlu5 receptor [2] = target: mGlu5 receptor (Rattus norvegicus, UniProt P31424); experiment: triple-add functional calcium mobilization assay, mGlu5; assay type: cell-based; details: PAM, Ago-PAM, weak PAM or partial antagonist
# mGlu5 receptor [3] = experiment: as above; assay type: cell-based; details: PAM, Ago-PAM, weak PAM or partial antagonist
# mGlu5 receptor [4] = details: HTS lead; cited from earlier work
# [5] = tested on: in vivo preclinical antipsychotic model; details: orally active; cited from earlier work
# mGlu5 receptor (Rattus norvegicus, UniProt P31424), sequence (P31424 21-1203): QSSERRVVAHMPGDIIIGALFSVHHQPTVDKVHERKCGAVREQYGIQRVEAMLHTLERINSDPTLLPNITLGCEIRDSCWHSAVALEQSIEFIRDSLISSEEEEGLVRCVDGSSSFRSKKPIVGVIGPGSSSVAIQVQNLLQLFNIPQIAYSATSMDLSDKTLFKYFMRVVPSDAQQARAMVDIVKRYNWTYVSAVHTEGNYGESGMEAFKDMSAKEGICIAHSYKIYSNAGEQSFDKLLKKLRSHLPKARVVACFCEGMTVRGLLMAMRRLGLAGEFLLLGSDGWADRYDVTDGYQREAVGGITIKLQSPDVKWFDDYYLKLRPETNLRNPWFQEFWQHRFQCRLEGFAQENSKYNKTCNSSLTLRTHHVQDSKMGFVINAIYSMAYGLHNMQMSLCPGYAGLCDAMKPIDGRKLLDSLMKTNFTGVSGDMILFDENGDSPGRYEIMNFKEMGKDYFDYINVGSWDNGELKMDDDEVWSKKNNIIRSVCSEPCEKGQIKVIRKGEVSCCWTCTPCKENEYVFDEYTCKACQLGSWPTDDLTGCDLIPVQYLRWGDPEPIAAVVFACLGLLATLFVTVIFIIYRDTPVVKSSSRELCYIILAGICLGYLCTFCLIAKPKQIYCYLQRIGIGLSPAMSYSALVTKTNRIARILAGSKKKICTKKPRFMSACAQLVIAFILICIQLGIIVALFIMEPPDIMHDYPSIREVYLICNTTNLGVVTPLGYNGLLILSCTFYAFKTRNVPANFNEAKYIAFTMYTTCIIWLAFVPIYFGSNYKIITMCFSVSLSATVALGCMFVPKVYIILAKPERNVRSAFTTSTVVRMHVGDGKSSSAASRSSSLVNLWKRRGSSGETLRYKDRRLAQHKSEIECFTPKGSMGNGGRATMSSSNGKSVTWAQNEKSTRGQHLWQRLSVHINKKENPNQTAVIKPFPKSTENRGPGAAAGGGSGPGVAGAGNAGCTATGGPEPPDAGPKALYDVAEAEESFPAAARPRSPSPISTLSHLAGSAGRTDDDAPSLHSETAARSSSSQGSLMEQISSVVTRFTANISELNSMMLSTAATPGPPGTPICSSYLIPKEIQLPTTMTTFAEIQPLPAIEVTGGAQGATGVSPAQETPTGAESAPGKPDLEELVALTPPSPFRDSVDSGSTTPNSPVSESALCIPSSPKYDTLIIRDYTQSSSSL
# mGlu5 receptor, sequence (P31424 21-1203): as above
compound,measurement,setting,value
O=C1NCCc2cc(C#Cc3ccccc3)ccc21 [9a],reversal of amphetamine-induced hyperlocomotion,[1],significant reversal
CCCN1CCc2cc(C#Cc3ccccc3)ccc2C1=O [9c],reversal of amphetamine-induced hyperlocomotion,[1],significant reversal; also recorded: Reversal of amphetamine-induced hyperlocomotion
O=C1c2ccc(C#Cc3ccccc3)cc2CCN1CC1CC1 [9f],reversal of amphetamine-induced hyperlocomotion,[1],significant reversal
CN1CCc2nc(C#Cc3cccc(F)c3)ccc2C1=O [10b],Category (mode of pharmacology),mGlu5 receptor [2],partial antagonists; also recorded: Partial Antag
CC(C)CN1CCc2nc(C#Cc3cccc(F)c3)ccc2C1=O [10c],Category (mode of pharmacology),mGlu5 receptor [3],Weak PAM
CCCCN1CCc2nc(C#Cc3cccc(F)c3)ccc2C1=O [10d],Category (mode of pharmacology),mGlu5 receptor [3],Weak PAM
O=C1c2ccc(C#Cc3cccc(F)c3)nc2CCN1CC1CC1 [10e],Category (mode of pharmacology),mGlu5 receptor [2],partial antagonists; also recorded: Partial Antag
O=C(c1ccc(C#Cc2ccccc2)cc1)N1CCC(O)CC1 [VU0092273],ligand efficiency (LE),mGlu5 receptor [4],~0.5
O=C(NC1CCC1)c1ccc(C#Cc2cccc(F)c2)nc1 [VU0360172],efficacy in an in vivo preclinical antipsychotic model,[5],efficacious
